pEC50: −log10 of the molar value.
System: ATF4 luciferase reporter in HEK293T cells
Experiment: ATF4-Luc assay (in vitro model of VWMD)
Type: cell-based, human
Conditions: Homo sapiens, HEK-293T, 7 h, HEK293T cells carrying the ATF4 luciferase reporter, 1 μg/mL tunicamycin, One Glo luminescence
How it was run: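 Stable HEK293T line expressing firefly luciferase behind the human ATF4 5′-UTR, treated with 1 μg/mL tunicamycin plus compound for 7 hours. Luminescence read with One Glo; EC50 determined.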

SMILES	pEC50
O=C(NC12CC(n3cc(-c4ccc(OC(F)(F)F)cn4)cn3)(C1)C2)[C@H]1C[C@@H](O)c2ccccc2O1 [Compound 367, (2R,4R)-4-hydroxy-N-(3-{4-[5-(trifluoromethoxy)pyridin-2-yl]-1H-pyrazol-1-yl}bicyclo[1.1.1]pentan-1-yl)-3,4-dihydro-2H-1-benzopyran-2-carboxamide]	> 8.00
O=C(NC12CC(n3cc(OCCOC(F)(F)F)cn3)(C1)C2)[C@@H]1CNc2cc(Cl)ccc2O1 [Compound 519, (2S)-6-chloro-N-(3-{4-[2-(trifluoromethoxy)ethoxy]-1H-pyrazol-1-yl}bicyclo[1.1.1]pentan-1-yl)-3,4-dihydro-2H-1,4-benzoxazine-2-carboxamide]	7.30 to 8.00
O=C(NC12CC(n3cc(CCCOC(F)(F)F)cn3)(C1)C2)[C@H]1CC(O)c2cc(Cl)ccc2O1 (stereo in doubt) [Compound 463, (2R,4R)-6-chloro-4-hydroxy-N-(3-{4-[3-(trifluoromethoxy)propyl]-1H-pyrazol-1-yl}bicyclo[1.1.1]pentan-1-yl)-3,4-dihydro-2H-1-benzopyran-2-carboxamide]	> 8.00
O=C(NC12CC(n3cc(N4CC[C@@H](OC(F)(F)F)C4)cn3)(C1)C2)[C@@H]1C[C@@H](O)c2cc(Cl)c(F)cc2O1 [Compound 379, (2S,4R)-6-chloro-7-fluoro-4-hydroxy-N-(3-{4-[(3R)-3-(trifluoromethoxy)pyrrolidin-1-yl]-1H-pyrazol-1-yl}bicyclo[1.1.1]pentan-1-yl)-3,4-dihydro-2H-1-benzopyran-2-carboxamide]	> 8.00
O=C(NC12CC(n3cc(C4CCN(CC(F)(F)F)CC4)cn3)(C1)C2)[C@H]1C[C@@H](O)c2cc(Cl)ccc2O1 [Compound 580, (2R,4R)-6-chloro-4-hydroxy-N-(3-{4-[1-(2,2,2-trifluoroethyl)piperidin-4-yl]-1H-pyrazol-1-yl}bicyclo[1.1.1]pentan-1-yl)-3,4-dihydro-2H-1-benzopyran-2-carboxamide]	> 8.00
O=C(NC12CC(n3cc(OCCOC(F)(F)F)nn3)(C1)C2)[C@H]1C[C@@H](O)c2cc(Cl)ccc2O1 [Compound 487, (2R,4R)-6-chloro-4-hydroxy-N-(3-{4-[2-(trifluoromethoxy)ethoxy]-1H-1,2,3-triazol-1-yl}bicyclo[1.1.1]pentan-1-yl)-3,4-dihydro-2H-1-benzopyran-2-carboxamide]	> 8.00
O=C(NC12CC(n3cc(-c4ccc(OC(F)F)nc4)cn3)(C1)C2)[C@H]1C[C@@H](O)c2cc(Cl)ccc2O1 [Compound 327, (2R,4R)-6-chloro-N-(3-{4-[6-(difluoromethoxy)pyridin-3-yl]-1H-pyrazol-1-yl}bicyclo[1.1.1]pentan-1-yl)-4-hydroxy-3,4-dihydro-2H-1-benzopyran-2-carboxamide]	> 8.00
COc1ccc2nn(C34CC(NC(=O)[C@H]5C[C@@H](O)c6cc(C(F)(F)F)c(F)cc6O5)(C3)C4)cc2n1 (racemic) [Compound 655, rac-(2R,4R)-7-fluoro-4-hydroxy-N-[3-(5-methoxy-2H-pyrazolo[4,3-b]pyridin-2-yl)bicyclo[1.1.1]pentan-1-yl]-6-(trifluoromethyl)-3,4-dihydro-2H-1-benzopyran-2-carboxamide]	> 8.00
O=C(NC12CC(n3cc(C(=O)N4CC(COC(F)(F)F)C4)cn3)(C1)C2)[C@H]1C[C@@H](O)c2ccccc2O1 [Compound 375, (2R,4R)-4-hydroxy-N-[3-(4-{3-[(trifluoromethoxy)methyl]azetidine-1-carbonyl}-1H-pyrazol-1-yl)bicyclo[1.1.1]pentan-1-yl]-3,4-dihydro-2H-1-benzopyran-2-carboxamide]	6.30 to 6.60
O=C(NC12CC(n3cc(CCCC(F)(F)F)cn3)(C1)C2)[C@H]1C[C@@H](O)c2cc(Cl)c(F)cc2O1 [Compound 520, (2R,4R)-6-chloro-7-fluoro-4-hydroxy-N-{3-[4-(4,4,4-trifluorobutyl)-1H-pyrazol-1-yl]bicyclo[1.1.1]pentan-1-yl}-3,4-dihydro-2H-1-benzopyran-2-carboxamide]	7.30 to 8.00
O=C(NC12CC(n3cc(N4CC[C@@H](OC(F)(F)F)C4)cn3)(C1)C2)[C@H]1C[C@@H](O)c2cc(Cl)ccc2O1 [Compound 356, (2R,4R)-6-chloro-4-hydroxy-N-(3-{4-[(3R)-3-(trifluoromethoxy)pyrrolidin-1-yl]-1H-pyrazol-1-yl}bicyclo[1.1.1]pentan-1-yl)-3,4-dihydro-2H-1-benzopyran-2-carboxamide]	> 8.00
O=C(NC12CC(OCC(=O)N3CCC(OC(F)(F)F)C3)(C1)C2)[C@H]1C[C@@H](O)c2cc(Cl)ccc2O1 (stereo partly drawn) [Compound 334, (2R,4R)-6-chloro-4-hydroxy-N-(3-{2-oxo-2-[3-(trifluoromethoxy)pyrrolidin-1-yl]ethoxy}bicyclo[1.1.1]pentan-1-yl)-3,4-dihydro-2H-1-benzopyran-2-carboxamide]	6.60 to 7.30
C[C@@H](COC(F)(F)F)N(C)c1cnn(C23CC(NC(=O)[C@H]4C[C@@H](O)c5cc(Cl)ccc5O4)(C2)C3)c1 [Compound 445, (2R,4R)-6-chloro-4-hydroxy-N-[3-(4-{methyl[(2S)-1-(trifluoromethoxy)propan-2-yl]amino}-1H-pyrazol-1-yl)bicyclo[1.1.1]pentan-1-yl]-3,4-dihydro-2H-1-benzopyran-2-carboxamide]	5.70 to 6.30
COc1ccc2cn(C34CC(NC(=O)[C@H]5C[C@@H](O)c6cc(Cl)ccc6O5)(C3)C4)nc2c1 [Compound 500, (2R,4R)-6-chloro-4-hydroxy-N-[3-(6-methoxy-2H-indazol-2-yl)bicyclo[1.1.1]pentan-1-yl]-3,4-dihydro-2H-1-benzopyran-2-carboxamide]	7.30 to 8.00
O=C(COc1ccc(Cl)c(F)c1)N[C@H]1CC[C@H](n2cc(-c3ccc(C(F)(F)F)cn3)cn2)CC1 [Compound 598, 2-(4-chloro-3-fluorophenoxy)-N-[(1r,4r)-4-(4-[5-(trifluoromethyl)pyridin-2-yl]-1H-pyrazol-1-yl)cyclohexyl]acetamide]	> 8.00
O=C(NC12CC(n3cc(OCCOC(F)(F)F)cn3)(C1)C2)[C@H]1C[C@@H](O)c2cc(Cl)c(Cl)cc2O1 [Compound 442, (2R,4R)-6,7-dichloro-4-hydroxy-N-(3-{4-[2-(trifluoromethoxy)ethoxy]-1H-pyrazol-1-yl}bicyclo[1.1.1]pentan-1-yl)-3,4-dihydro-2H-1-benzopyran-2-carboxamide]	> 8.00
O=C(NC12CC(n3cc(-c4ccc(C(F)(F)F)cn4)cn3)(C1)C2)[C@H]1C[C@H](O)c2cc(C(F)(F)F)ccc2O1 [Compound 549, (2R,4S)-4-hydroxy-6-(trifluoromethyl)-N-(3-{4-[5-(trifluoromethyl)pyridin-2-yl]-1H-pyrazol-1-yl}bicyclo[1.1.1]pentan-1-yl)-3,4-dihydro-2H-1-benzopyran-2-carboxamide]	> 8.00
O=C(CO[C@H]1C[C@@H](OC(F)(F)F)C1)N[C@H]1C[C@H]2C[C@@H]1C[C@@H]2NC(=O)[C@H]1C[C@@H](O)c2cc(C(F)(F)F)c(F)cc2O1 [Compound 646, (2R,4R)-7-fluoro-4-hydroxy-N-[(1R,2S,4R,5S)-5-(2-{[(1s,3R)-3-(trifluoromethoxy)cyclobutyl]oxy}acetamido)bicyclo[2.2.1]heptan-2-yl]-6-(trifluoromethyl)-3,4-dihydro-2H-1-benzopyran-2-carboxamide]	> 8.00
C[C@H](COC(F)(F)F)Oc1cnn(C23CC(NC(=O)[C@H]4C[C@@H](O)c5cc(Cl)ccc5O4)(C2)C3)c1 [Compound 440, (2R,4R)-6-chloro-4-hydroxy-N-[3-(4-{[(2R)-1-(trifluoromethoxy)propan-2-yl]oxy}-1H-pyrazol-1-yl)bicyclo[1.1.1]pentan-1-yl]-3,4-dihydro-2H-1-benzopyran-2-carboxamide]	7.30 to 8.00
O=C(N[C@H]1CC[C@H](n2cc(-c3ccc(C(F)(F)F)cn3)cn2)CC1)[C@H]1C[C@@H](O)c2cc(Cl)ccc2O1 [Compound 577, (2R,4R)-6-chloro-4-hydroxy-N-[(1r,4R)-4-{4-[5-(trifluoromethyl)pyridin-2-yl]-1H-pyrazol-1-yl}cyclohexyl]-3,4-dihydro-2H-1-benzopyran-2-carboxamide]	> 8.00
COc1cc2cn(C34CC(NC(=O)[C@H]5C[C@@H](O)c6cc(Cl)ccc6O5)(C3)C4)nc2cn1 [Compound 497, (2R,4R)-6-chloro-4-hydroxy-N-[3-(5-methoxy-2H-pyrazolo[3,4-c]pyridin-2-yl)bicyclo[1.1.1]pentan-1-yl]-3,4-dihydro-2H-1-benzopyran-2-carboxamide]	7.30 to 8.00
O=C(NC12CC(c3ccc(C(=O)N4CC[C@H](OC(F)(F)F)C4)cn3)(C1)C2)[C@H]1C[C@@H](O)c2cc(Cl)ccc2O1 [Compound 534, (2R,4R)-6-chloro-4-hydroxy-N-(3-{5-[(3S)-3-(trifluoromethoxy)pyrrolidine-1-carbonyl]pyridin-2-yl}bicyclo[1.1.1]pentan-1-yl)-3,4-dihydro-2H-1-benzopyran-2-carboxamide]	7.30 to 8.00
O=C(NC12CC(n3cc(C(=O)N4CC(COC(F)F)C4)cn3)(C1)C2)[C@H]1C[C@@H](O)c2cc(Cl)ccc2O1 [Compound 348, (2R,4R)-6-chloro-N-[3-(4-{3-[(difluoromethoxy)methyl]azetidine-1-carbonyl}-1H-pyrazol-1-yl)bicyclo[1.1.1]pentan-1-yl]-4-hydroxy-3,4-dihydro-2H-1-benzopyran-2-carboxamide]	6.60 to 7.30
O=C(NC12CC(n3cnc([C@H]4C[C@@H](OC(F)(F)F)C4)c3)(C1)C2)[C@H]1C[C@@H](O)c2cc(Cl)c(F)cc2O1 [Compound 472, (2R,4R)-6-chloro-7-fluoro-4-hydroxy-N-(3-{4-[(1s,3S)-3-(trifluoromethoxy)cyclobutyl]-1H-imidazol-1-yl}bicyclo[1.1.1]pentan-1-yl)-3,4-dihydro-2H-1-benzopyran-2-carboxamide]	> 8.00
O=C1CC(C(=O)NC23CC(c4nnc([C@H]5C[C@@H](OC(F)(F)F)C5)o4)(C2)C3)Oc2ccc(Cl)cc21 (stereo partly shown) [Compound 151, 6-chloro-4-oxo-N-(3-{5-[(1s,3s)-3-(trifluoromethoxy)cyclobutyl]-1,3,4-oxadiazol-2-yl}bicyclo[1.1.1]pentan-1-yl)-3,4-dihydro-2H-1-benzopyran-2-carboxamide]	6.60 to 7.30

Reference: patent publication US20250145594A1, “MODULATORS OF THE INTEGRATED STRESS PATHWAY” (Calico Life Sciences LLC, priority 2020, published 2025)
